# Source: the kinase profiling compilation of Christmann-Franck et al. (2016)
# Columns and labels:
# Experiment in all cases: KINOMEscan competition binding
# Conditions in all cases: compound 10.0 µM
# [1] = test system: PIK3CA (human), P42336 [E545K]
# PTK6 (human) = PTK6 (human) (UniProt Q13882)
# RPS6KA2 KD1 (human) = RPS6KA2 KD1 (human) (UniProt Q15349)
# PIM3 (human) = PIM3 (human) (UniProt Q86V86)
# PRKD2 (human) = PRKD2 (human) (UniProt Q9BZL6)
# MARK1 (human) = MARK1 (human) (UniProt Q9P0L2)
# FER (human) = FER (human) (UniProt P16591)
# MARK2 (human) = MARK2 (human) (UniProt Q7KZI7)
# MET (human) = MET (human) (UniProt P08581)
# FGFR3 (human) = FGFR3 (human) (UniProt P22607)
# MAP3K11 (human) = MAP3K11 (human) (UniProt Q16584)
# TYRO3 (human) = TYRO3 (human) (UniProt Q06418)
# MAK (human) = MAK (human) (UniProt P20794)
# CSNK1G1 (human) = CSNK1G1 (human) (UniProt Q9HCP0)
# PRKCQ (human) = PRKCQ (human) (UniProt Q04759)
# HUNK (human) = HUNK (human) (UniProt P57058)
# LTK (human) = LTK (human) (UniProt P29376)
# ULK3 (human) = ULK3 (human) (UniProt Q6PHR2)
# Sequence of ULK3 (human) (Q6PHR2 whole entry, looked up): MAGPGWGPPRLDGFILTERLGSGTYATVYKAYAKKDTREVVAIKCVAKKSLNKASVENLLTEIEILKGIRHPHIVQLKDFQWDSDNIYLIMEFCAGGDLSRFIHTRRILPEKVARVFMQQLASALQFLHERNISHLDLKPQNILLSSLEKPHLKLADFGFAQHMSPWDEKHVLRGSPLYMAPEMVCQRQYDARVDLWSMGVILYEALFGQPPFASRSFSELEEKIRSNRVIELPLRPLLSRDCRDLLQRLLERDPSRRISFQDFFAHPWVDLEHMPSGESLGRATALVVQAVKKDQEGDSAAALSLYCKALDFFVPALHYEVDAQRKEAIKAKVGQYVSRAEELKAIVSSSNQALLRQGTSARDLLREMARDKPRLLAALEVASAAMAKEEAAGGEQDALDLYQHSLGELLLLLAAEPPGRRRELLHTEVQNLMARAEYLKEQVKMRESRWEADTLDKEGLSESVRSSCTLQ
# STK11 (human) = STK11 (human) (UniProt Q15831)
# Sequence of STK11 (human) (Q15831 whole entry, looked up): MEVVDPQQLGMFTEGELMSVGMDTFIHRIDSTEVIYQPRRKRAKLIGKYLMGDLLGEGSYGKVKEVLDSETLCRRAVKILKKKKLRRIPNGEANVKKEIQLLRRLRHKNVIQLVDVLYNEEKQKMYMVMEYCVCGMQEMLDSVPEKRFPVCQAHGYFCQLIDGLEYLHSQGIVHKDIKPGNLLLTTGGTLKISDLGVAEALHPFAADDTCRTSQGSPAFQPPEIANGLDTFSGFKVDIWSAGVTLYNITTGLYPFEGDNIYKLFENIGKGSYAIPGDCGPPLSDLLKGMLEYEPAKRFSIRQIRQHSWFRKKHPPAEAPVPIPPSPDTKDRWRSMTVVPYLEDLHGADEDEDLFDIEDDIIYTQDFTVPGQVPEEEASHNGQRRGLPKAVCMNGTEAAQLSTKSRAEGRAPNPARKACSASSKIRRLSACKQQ
# MAPK4 (human) = MAPK4 (human) (UniProt P31152)
# [2] = test system: ABL1 (human), P00519 [F317L]
# STK17B (human) = STK17B (human) (UniProt O94768)
# [3] = test system: ABL1 (human), P00519 [Y253F]
# EPHB2 (human) = EPHB2 (human) (UniProt P29323)
# HIPK3 (human) = HIPK3 (human) (UniProt Q9H422)
# Sequence of HIPK3 (human) (Q9H422 whole entry, looked up): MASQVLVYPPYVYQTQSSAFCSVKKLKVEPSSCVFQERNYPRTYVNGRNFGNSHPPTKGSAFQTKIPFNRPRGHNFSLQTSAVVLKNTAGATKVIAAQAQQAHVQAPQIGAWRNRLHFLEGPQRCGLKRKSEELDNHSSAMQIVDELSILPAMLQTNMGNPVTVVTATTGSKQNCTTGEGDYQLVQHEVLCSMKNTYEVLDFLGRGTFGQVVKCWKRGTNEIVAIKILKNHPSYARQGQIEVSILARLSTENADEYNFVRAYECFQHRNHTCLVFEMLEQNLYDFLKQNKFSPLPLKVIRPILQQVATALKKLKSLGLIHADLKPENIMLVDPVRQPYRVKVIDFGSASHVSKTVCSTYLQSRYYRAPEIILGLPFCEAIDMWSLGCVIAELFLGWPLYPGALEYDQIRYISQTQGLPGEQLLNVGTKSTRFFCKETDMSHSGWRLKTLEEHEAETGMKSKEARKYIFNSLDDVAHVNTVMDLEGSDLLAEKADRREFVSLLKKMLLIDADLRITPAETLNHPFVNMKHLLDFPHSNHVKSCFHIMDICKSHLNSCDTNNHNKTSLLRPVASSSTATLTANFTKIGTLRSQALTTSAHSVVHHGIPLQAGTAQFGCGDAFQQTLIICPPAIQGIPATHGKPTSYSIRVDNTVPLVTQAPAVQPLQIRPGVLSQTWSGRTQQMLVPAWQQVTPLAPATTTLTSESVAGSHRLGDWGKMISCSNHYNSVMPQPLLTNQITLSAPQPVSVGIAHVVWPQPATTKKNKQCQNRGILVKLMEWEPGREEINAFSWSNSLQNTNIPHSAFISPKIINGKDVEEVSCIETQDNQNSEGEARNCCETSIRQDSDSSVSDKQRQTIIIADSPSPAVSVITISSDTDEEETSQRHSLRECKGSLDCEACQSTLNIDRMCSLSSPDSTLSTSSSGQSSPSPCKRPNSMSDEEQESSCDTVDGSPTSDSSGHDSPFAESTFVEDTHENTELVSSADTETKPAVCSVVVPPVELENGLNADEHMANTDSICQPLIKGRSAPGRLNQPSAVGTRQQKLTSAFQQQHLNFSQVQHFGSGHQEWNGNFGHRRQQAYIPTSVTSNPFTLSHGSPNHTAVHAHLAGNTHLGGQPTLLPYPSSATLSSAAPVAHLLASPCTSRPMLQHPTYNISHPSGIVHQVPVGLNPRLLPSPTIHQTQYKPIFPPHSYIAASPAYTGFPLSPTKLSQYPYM
# STK35 (human) = STK35 (human) (UniProt Q8TDR2)
# STK25 (human) = STK25 (human) (UniProt O00506)
# ABL1 (human) = ABL1 (human) (UniProt P00519)
# ERN1 (human) = ERN1 (human) (UniProt O75460)
# MAPK7 (human) = MAPK7 (human) (UniProt Q13164)
# PRKACA (human) = PRKACA (human) (UniProt P17612)
# NLK (human) = NLK (human) (UniProt Q9UBE8)
# CDK11B (human) = CDK11B (human) (UniProt P21127)
# RPS6KA4 KD2 (human) = RPS6KA4 KD2 (human) (UniProt O75676)
# RPS6KA5 KD1 (human) = RPS6KA5 KD1 (human) (UniProt O75582)
# CSNK1D (human) = CSNK1D (human) (UniProt P48730)
# Sequence of CSNK1D (human) (P48730 whole entry, looked up): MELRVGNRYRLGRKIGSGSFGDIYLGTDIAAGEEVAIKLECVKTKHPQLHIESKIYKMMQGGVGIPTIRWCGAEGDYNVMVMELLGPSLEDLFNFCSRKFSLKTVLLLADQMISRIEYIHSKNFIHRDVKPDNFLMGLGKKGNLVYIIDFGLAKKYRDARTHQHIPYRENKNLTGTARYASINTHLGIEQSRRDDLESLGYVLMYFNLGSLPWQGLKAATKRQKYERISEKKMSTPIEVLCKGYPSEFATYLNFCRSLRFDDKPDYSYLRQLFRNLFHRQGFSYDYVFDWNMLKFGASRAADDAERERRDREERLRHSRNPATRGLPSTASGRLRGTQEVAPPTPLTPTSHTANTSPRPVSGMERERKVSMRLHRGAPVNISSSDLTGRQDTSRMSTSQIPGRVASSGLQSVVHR
# NEK6 (human) = NEK6 (human) (UniProt Q9HC98)
# Sequence of NEK6 (human) (Q9HC98 whole entry, looked up): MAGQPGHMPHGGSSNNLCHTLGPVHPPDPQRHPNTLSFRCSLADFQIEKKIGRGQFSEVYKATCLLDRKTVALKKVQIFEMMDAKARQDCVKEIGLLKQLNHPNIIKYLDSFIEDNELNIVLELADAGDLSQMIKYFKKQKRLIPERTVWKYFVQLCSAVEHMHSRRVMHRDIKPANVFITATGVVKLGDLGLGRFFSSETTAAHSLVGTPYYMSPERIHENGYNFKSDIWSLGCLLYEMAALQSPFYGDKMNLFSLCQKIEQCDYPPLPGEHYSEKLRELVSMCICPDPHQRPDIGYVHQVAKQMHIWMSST
# BMPR1B (human) = BMPR1B (human) (UniProt O00238)
# STK38 (human) = STK38 (human) (UniProt Q15208)
# Sequence of STK38 (human) (Q15208 whole entry, looked up): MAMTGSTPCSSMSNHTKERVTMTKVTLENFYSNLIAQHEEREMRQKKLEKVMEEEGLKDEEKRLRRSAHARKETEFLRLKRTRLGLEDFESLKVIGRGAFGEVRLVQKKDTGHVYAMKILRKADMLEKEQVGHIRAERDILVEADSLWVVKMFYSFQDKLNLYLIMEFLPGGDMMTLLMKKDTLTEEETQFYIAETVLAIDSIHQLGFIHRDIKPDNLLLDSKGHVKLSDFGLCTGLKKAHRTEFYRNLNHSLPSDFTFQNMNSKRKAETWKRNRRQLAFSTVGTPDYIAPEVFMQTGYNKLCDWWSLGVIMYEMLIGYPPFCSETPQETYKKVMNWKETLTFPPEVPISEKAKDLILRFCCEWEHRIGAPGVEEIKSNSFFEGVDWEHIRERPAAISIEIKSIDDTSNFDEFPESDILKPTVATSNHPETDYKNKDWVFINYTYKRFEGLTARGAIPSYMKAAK
# STK38L (human) = STK38L (human) (UniProt Q9Y2H1)
# ICK (human) = ICK (human) (UniProt Q9UPZ9)
# Sequence of ICK (human) (Q9UPZ9 whole entry, looked up): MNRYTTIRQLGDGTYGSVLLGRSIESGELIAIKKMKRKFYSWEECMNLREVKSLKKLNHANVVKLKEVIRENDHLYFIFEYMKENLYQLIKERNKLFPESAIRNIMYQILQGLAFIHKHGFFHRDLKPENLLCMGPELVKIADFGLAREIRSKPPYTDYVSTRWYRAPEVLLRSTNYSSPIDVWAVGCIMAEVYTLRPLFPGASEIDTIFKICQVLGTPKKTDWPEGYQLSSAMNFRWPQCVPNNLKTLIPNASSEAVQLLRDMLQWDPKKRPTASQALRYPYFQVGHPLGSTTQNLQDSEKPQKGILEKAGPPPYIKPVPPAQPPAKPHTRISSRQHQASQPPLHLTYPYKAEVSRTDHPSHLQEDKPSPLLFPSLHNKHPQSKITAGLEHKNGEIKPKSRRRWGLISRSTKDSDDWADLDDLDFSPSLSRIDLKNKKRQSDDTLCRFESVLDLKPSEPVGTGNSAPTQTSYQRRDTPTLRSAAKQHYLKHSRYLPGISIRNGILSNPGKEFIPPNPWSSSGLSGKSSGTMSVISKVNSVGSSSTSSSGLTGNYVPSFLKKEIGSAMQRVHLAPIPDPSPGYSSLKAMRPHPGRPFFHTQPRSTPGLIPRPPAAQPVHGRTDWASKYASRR
# PRKCE (human) = PRKCE (human) (UniProt Q02156)
# Sequence of PRKCE (human) (Q02156 whole entry, looked up): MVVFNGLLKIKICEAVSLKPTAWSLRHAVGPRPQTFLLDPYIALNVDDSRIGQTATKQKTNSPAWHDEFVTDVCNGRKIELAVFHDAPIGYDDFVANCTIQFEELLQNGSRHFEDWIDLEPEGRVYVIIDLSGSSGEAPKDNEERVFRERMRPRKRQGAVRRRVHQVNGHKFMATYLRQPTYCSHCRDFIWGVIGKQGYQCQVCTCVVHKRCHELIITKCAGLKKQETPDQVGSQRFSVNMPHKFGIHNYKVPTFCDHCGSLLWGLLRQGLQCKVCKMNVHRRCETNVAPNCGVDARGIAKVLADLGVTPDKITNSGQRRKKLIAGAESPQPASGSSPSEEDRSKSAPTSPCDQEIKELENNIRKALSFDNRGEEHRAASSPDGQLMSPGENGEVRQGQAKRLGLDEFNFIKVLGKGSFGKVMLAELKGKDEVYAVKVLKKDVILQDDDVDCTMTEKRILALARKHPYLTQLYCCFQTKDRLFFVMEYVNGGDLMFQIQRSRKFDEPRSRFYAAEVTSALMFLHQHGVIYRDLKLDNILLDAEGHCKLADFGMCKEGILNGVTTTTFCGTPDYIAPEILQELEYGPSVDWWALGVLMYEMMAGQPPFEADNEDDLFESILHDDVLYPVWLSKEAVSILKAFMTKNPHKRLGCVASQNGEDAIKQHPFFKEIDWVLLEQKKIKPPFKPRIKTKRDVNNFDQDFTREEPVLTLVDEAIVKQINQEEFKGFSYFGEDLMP
structure (smiles),measurement,setting,value
Cc1cnc(-c2cnc(NCCNc3ccc(C#N)cn3)nc2-c2ccc(Cl)cc2Cl)[nH]1,"kinase still bound, per cent of control",[1],100%
same,"kinase still bound, per cent of control",PTK6 (human),100%
same,"kinase still bound, per cent of control",RPS6KA2 KD1 (human),70%
same,"kinase still bound, per cent of control",PIM3 (human),95%
same,"kinase still bound, per cent of control",PRKD2 (human),100%
same,"kinase still bound, per cent of control",MARK1 (human),91%
same,"kinase still bound, per cent of control",FER (human),100%
same,"kinase still bound, per cent of control",MARK2 (human),100%
same,"kinase still bound, per cent of control",MET (human),96%
same,"kinase still bound, per cent of control",FGFR3 (human),100%
same,"kinase still bound, per cent of control",MAP3K11 (human),54%
same,"kinase still bound, per cent of control",TYRO3 (human),100%
same,"kinase still bound, per cent of control",MAK (human),80%
same,"kinase still bound, per cent of control",CSNK1G1 (human),49%
same,"kinase still bound, per cent of control",PRKCQ (human),100%
same,"kinase still bound, per cent of control",HUNK (human),100%
same,"kinase still bound, per cent of control",LTK (human),100%
same,"kinase still bound, per cent of control",ULK3 (human),100%
same,"kinase still bound, per cent of control",STK11 (human),100%
same,"kinase still bound, per cent of control",MAPK4 (human),100%
same,"kinase still bound, per cent of control",[2],100%
same,"kinase still bound, per cent of control",STK17B (human),84%
same,"kinase still bound, per cent of control",[3],100%
same,"kinase still bound, per cent of control",EPHB2 (human),100%
same,"kinase still bound, per cent of control",HIPK3 (human),100%
same,"kinase still bound, per cent of control",STK35 (human),100%
same,"kinase still bound, per cent of control",STK25 (human),90%
same,"kinase still bound, per cent of control",ABL1 (human),96%
same,"kinase still bound, per cent of control",ERN1 (human),100%
same,"kinase still bound, per cent of control",MAPK7 (human),100%
same,"kinase still bound, per cent of control",PRKACA (human),100%
same,"kinase still bound, per cent of control",NLK (human),86%
same,"kinase still bound, per cent of control",CDK11B (human),100%
same,"kinase still bound, per cent of control",RPS6KA4 KD2 (human),80%
same,"kinase still bound, per cent of control",RPS6KA5 KD1 (human),98%
same,"kinase still bound, per cent of control",CSNK1D (human),81%
same,"kinase still bound, per cent of control",NEK6 (human),100%
same,"kinase still bound, per cent of control",BMPR1B (human),92%
same,"kinase still bound, per cent of control",STK38 (human),100%
same,"kinase still bound, per cent of control",STK38L (human),100%
same,"kinase still bound, per cent of control",ICK (human),39%
same,"kinase still bound, per cent of control",PRKCE (human),100%
Cn1cc(C2=C(c3ccc(Cl)cc3Cl)C(=O)NC2=O)c2ccccc21,"kinase still bound, per cent of control",[1],100%
same,"kinase still bound, per cent of control",PTK6 (human),100%
same,"kinase still bound, per cent of control",RPS6KA2 KD1 (human),73%
same,"kinase still bound, per cent of control",PIM3 (human),18%
same,"kinase still bound, per cent of control",PRKD2 (human),99%
same,"kinase still bound, per cent of control",MARK1 (human),96%
same,"kinase still bound, per cent of control",FER (human),100%
same,"kinase still bound, per cent of control",MARK2 (human),78%
same,"kinase still bound, per cent of control",MET (human),79%
same,"kinase still bound, per cent of control",FGFR3 (human),97%
same,"kinase still bound, per cent of control",MAP3K11 (human),100%
same,"kinase still bound, per cent of control",TYRO3 (human),100%
same,"kinase still bound, per cent of control",MAK (human),20%
same,"kinase still bound, per cent of control",CSNK1G1 (human),81%
same,"kinase still bound, per cent of control",PRKCQ (human),24%
same,"kinase still bound, per cent of control",HUNK (human),100%
same,"kinase still bound, per cent of control",LTK (human),100%
same,"kinase still bound, per cent of control",ULK3 (human),100%
same,"kinase still bound, per cent of control",STK11 (human),60%
same,"kinase still bound, per cent of control",MAPK4 (human),100%
same,"kinase still bound, per cent of control",[2],100%
same,"kinase still bound, per cent of control",STK17B (human),100%
same,"kinase still bound, per cent of control",[3],100%
same,"kinase still bound, per cent of control",EPHB2 (human),100%
same,"kinase still bound, per cent of control",HIPK3 (human),56%
same,"kinase still bound, per cent of control",STK35 (human),94%
same,"kinase still bound, per cent of control",STK25 (human),76%
same,"kinase still bound, per cent of control",ABL1 (human),100%
same,"kinase still bound, per cent of control",ERN1 (human),100%
same,"kinase still bound, per cent of control",MAPK7 (human),79%
same,"kinase still bound, per cent of control",PRKACA (human),100%
same,"kinase still bound, per cent of control",NLK (human),92%
same,"kinase still bound, per cent of control",CDK11B (human),100%
same,"kinase still bound, per cent of control",RPS6KA4 KD2 (human),96%
same,"kinase still bound, per cent of control",RPS6KA5 KD1 (human),98%
same,"kinase still bound, per cent of control",CSNK1D (human),94%
same,"kinase still bound, per cent of control",NEK6 (human),91%
same,"kinase still bound, per cent of control",BMPR1B (human),86%
same,"kinase still bound, per cent of control",STK38 (human),100%
same,"kinase still bound, per cent of control",STK38L (human),100%
same,"kinase still bound, per cent of control",ICK (human),12%
same,"kinase still bound, per cent of control",PRKCE (human),94%
